Test results reported in patent US6838445B1, “Tumor antigen peptide originating in SART-1” (Kyogo Itoh, priority 1998, dated 2005).
Where no end group is shown, it is not given here.

What was measured:
[1] = tested on: KE-4CTL reacting with HLA-A2402-expressing VA-13 cells; assay: IFN-γ production by KE-4CTL against peptide-pulsed HLA-A2402-expressing VA-13 cells (ELISA); format: cell-based, human; conditions: peptide 10 μM for 2 hours on HLA-A2402-expressing VA-13 cells, 18 hours culture with 2×10^4 KE-4CTLs
Description: Concretely, when peripheral blood lymphocytes are isolated from HLA-A24 antigen-positive human and candidate peptides are added thereto to stimulate in vitro, it can be evaluated by determining whether or not CTLs that specifically recognize the candidate peptide-pulsed HLA-A24-positive cells are induced. Here, the presence or absence of the induction of the CTLs can be examined, for instance, by assaying an amount of various cytokines (for instance, IFN-γ) produced by CTLs in reaction with the antigen peptide presenting cells by means of enzyme-linked immunosorbent assay (ELISA) or the like. As the antigen peptide presenting cells (target cells) during the assay, there are included, for instance, esophageal cancer cell line KE-4 (FERM BP-5955). In addition, the induction can be examined by the method for assaying CTL toxicity on ^51Cr-labeled antigen peptide presenting cells (^51Cr-release assay, Int. J. Cancer, 58:317, 1994). Further, the induction can be examined by pulsing with candidate peptides to cells resulting from introduction of an expression plasmid into, for instance, COS-7 cells (ATCC No. CRL1651) and VA-13 cells (RIKEN CELL BANK), the expression plasmid for expressing HLA-A24 cDNA [Cancer Res., 55:4248-4252 (1995); Genbank Accession No. M64740]; reacting KE-4CTL (FERM BP-5954), or CTLs prepared in the manner described above, or the like with the resulting cells; and assaying an amount of various cytokines (for instance, IFN-γ) that are produced by CTLs.
HLA-A2402 cDNA (listed in Genbank Accession No. M64740) was obtained from KE-4 in accordance with the description in the publication (Cancer Res., 55:4248, 1995), and a recombinant plasmid was prepared by incorporating the resulting product into an expression vector pCR3 (manufactured by INVITROGEN). This plasmid was transfected to 10^4 cells of VA-13 cells (available from RIKEN CELL BANK; Ann. Med Exp. Biol. Fenn., 44:242, 1966) by lipofectin method in accordance with the publication (J. Exp. Med., 187:277, 1998), to thereby express HLA-A2402. Each of the peptides “725-733,” “740-750,” “746-755,” “746-756” and “758-766*” among those listed in Example 1 was added at 10 μM in 2 hours, and thereafter the mixture was cultured for 18 hours together with 2×10^4 of KE-4CTLs. An amount of IFN-γ produced by KE-4CTLs in the culture supernatant was assayed by ELISA method. […] Thereafter, the resulting product was developed by using Peroxidase Developing Kit T (manufactured by Sumitomo Bakelite Company, Limited), and thereafter its absorbance (405 nm) was determined. The resulting value was quantified by comparing it with the value obtained from standard IFN-γ. […]

[2] = tested on: HLA-A2402-negative QG56 cells; assay: Induction of CTLs from peripheral blood lymphocytes by peptide; IFN-γ release against QG56 target cells (ELISA); format: cell-based; conditions: peripheral blood lymphocytes (HLA-A24 homo healthy donors) stimulated three times with 10 μM peptide, 8×10^4 effectors; target cells QG56 (1×10^4), negative control
Description: (§1) First, lymphocytes were isolated by Ficol method from peripheral blood of healthy donors whose HLA-A locus is A24 homo. The lymphocytes were aliquoted to a 24-well plate so as to be 2×10^6 cells/well, and cultured in a culture medium containing 45% RPMI 1640 medium, 45% AIM-V medium, 10% FCS and 100 U/ml IL-2. Each of the above-mentioned tumor antigen peptides was added to the culture medium so as to have a concentration of 10 μM, to stimulate the peripheral blood lymphocytes. One week later, the above-mentioned tumor antigen peptide was added thereto so as to have a concentration of 10 μM, together with about 2×10^5 of X-ray irradiated (50 Gy) peripheral blood lymphocytes, to carry out a second stimulation of the lymphocytes. After another week, a third stimulation was carried out by repeating the procedures in the same manner as above. After one week from the third stimulation, the cultured lymphocytes were collected. The amount of IFN-γ of the supernatant was assayed by ELISA, the supernatant being produced by reacting the above-mentioned lymphocytes (8×10^4) with HLA-A2402-positive KE-4 cells in which the tumor antigen protein was expressed and with HLA-A2402-negative QG56 cells in which the tumor antigen protein was expressed, respectively, as targeted cells (1×10^4).

[3] = tested on: HLA-A2402-positive KE-4 cells; assay: Induction of CTLs from peripheral blood lymphocytes by peptide; IFN-γ release against KE-4 target cells (ELISA); format: cell-based, human; conditions: for induction of antigen peptide-specific CTLs from peripheral blood lymphocytes: conclusion from Table 1; for reactivity of peptide-stimulated peripheral blood lymphocytes against KE-4 compared with negative control QG56: from Table 1; for IFN-γ (pg/ml) in Supernatant: peripheral blood lymphocytes (HLA-A24 homo healthy donors) stimulated three times with 10 μM peptide, 8×10^4 effectors, target cells KE-4 (1×10^4)
Description: as §1

In the case of AFRQLSHRF [725-733], the “activity as HLA-A24-restricted tumor antigen peptide (amount of IFN-γ produced by KE-4CTLs, FIG. 1)” value [1] is reported as “function as HLA-A24-restricted tumor antigen peptides”.
For KMKTERRMKKL [740-750], the “activity as HLA-A24-restricted tumor antigen peptide (amount of IFN-γ produced by KE-4CTLs, FIG. 1)” value [1] was “function as HLA-A24-restricted tumor antigen peptides”.
With RMKKLDEEAL [746-755] the “IFN-γ (pg/ml) in Supernatant” value [2] was 281.4 pg/mL, the “activity as HLA-A24-restricted tumor antigen peptide (amount of IFN-γ produced by KE-4CTLs, FIG. 1)” value [1] was “function as HLA-A24-restricted tumor antigen peptides” and the “induction of antigen peptide-specific CTLs from peripheral blood lymphocytes” value [3] was “antigen peptide-specific CTLs were induced”. The “reactivity of peptide-stimulated peripheral blood lymphocytes against KE-4 compared with negative control QG56” value [3] was “stronger reactivities against KE-4” and the “IFN-γ (pg/ml) in Supernatant” value [3] was 595.5 pg/mL.
For RMKKLDEEALL [746-756], the “IFN-γ (pg/ml) in Supernatant” value [2] was 392.0 pg/mL, the “activity as HLA-A24-restricted tumor antigen peptide (amount of IFN-γ produced by KE-4CTLs, FIG. 1)” value [1] was “function as HLA-A24-restricted tumor antigen peptides” and the “induction of antigen peptide-specific CTLs from peripheral blood lymphocytes” value [3] was “antigen peptide-specific CTLs were induced”. For the same sequence, the “reactivity of peptide-stimulated peripheral blood lymphocytes against KE-4 compared with negative control QG56” value [3] was “stronger reactivities against KE-4” and the “IFN-γ (pg/ml) in Supernatant” value [3] was 701.5 pg/mL.
